Measurements published in publication PMC7044277 (Nature Communications, 2020).
Several values for one entry are separate records, joined by “and”; a condition that tells them apart may be missing. Equal entries are not always repeated.

How the values were obtained:
DRD3 F1063.28A = DRD3 F1063.28A (Homo sapiens, UniProt P35462, F106A); assay: cell-based; format: cell-based
320 non-olfactory GPCRs = target: T1, 320 non-olfactory GPCRs (Homo sapiens, UniProt Q9HB89); format: cell-based; details: receptor NMUR1; replicate values, Fig_4g;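 note: fold over basal response of each receptor without drug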
T1 construct: expressed in transfected cells; host or cells: HTLA cells
T1 sequence (Q9HB89 whole entry): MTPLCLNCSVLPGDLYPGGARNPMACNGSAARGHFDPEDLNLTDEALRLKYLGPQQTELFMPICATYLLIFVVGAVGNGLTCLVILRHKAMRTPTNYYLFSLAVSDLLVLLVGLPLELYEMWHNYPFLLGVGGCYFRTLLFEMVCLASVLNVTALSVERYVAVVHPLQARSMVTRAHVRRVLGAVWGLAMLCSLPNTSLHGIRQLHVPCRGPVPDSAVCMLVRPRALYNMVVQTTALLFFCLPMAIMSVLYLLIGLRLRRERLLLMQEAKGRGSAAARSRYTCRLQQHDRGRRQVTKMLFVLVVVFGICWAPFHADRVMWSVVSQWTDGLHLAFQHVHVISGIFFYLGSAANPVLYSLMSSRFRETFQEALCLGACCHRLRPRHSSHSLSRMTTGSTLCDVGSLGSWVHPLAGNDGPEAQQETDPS

Sequence of DRD3 F1063.28A (P35462 whole entry F106A): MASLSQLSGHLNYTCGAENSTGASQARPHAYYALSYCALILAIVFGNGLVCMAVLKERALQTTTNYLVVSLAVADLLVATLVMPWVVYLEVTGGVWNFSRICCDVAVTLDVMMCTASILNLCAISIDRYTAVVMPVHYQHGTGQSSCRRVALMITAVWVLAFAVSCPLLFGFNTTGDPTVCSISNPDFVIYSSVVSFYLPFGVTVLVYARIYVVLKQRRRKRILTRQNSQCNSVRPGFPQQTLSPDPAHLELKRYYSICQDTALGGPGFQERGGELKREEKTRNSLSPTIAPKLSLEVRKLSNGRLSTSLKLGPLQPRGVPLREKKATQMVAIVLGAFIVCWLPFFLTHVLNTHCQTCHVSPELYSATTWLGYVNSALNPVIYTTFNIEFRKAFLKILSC

CCOc1cccc2cc(C(C)NCC3(O)CCCCC3)oc12 (centres unmarked) [O4LE6]
EC50 (DRD3 F1063.28A): > 10 µM
GPCRome agonism screen response (320 non-olfactory GPCRs): 1.001 and 1.011 and 0.9191 and 1.865
